Values quoted from earlier work, collected in US9303023B2, “Pyrazole and imidazole derivatives useful as orexin antagonists” (ACTELION PHARMACEUTICALS LTD., priority 2011, dated 2016).

Key:
[1] = rat fear-potentiated startle paradigm
[2] = in vivo
[3] = rat
[4] = rat model
amyloid-beta (Aβ) = details: after acute sleep restriction, amyloid precursor protein transgenic mice
[5] = mouse model of depression, administered chronically
[6] = fasted hungry rats exposed to food odors

Compound | activity in conditioned fear model [1] | activity in animal model related to addictions [2] | alertness (active wake and locomotion) [3] | time spent in both REM and NREM sleep [3] | memory function [4] | brain levels of amyloid-beta (Aβ) and Aβ plaque deposition (amyloid-beta (Aβ)) | antidepressant-like activity [5] | natural activation induced by orexin A [6]
COc1ccc(C[C@H]2c3cc(OC)c(OC)cc3CCN2[C@@H](C(=O)NC(C)C)c2ccccc2)cc1OC [(R)-2-[(S)-1-(3,4-Dimethoxy-benzyl)-6,7-dimethoxy-3,4-dihydro-1H-isoquinolin-2-yl]-N-isopropyl-2-phenyl-acetamide] | active | active |  |  |  |  |  | 
CNC(=O)[C@@H](c1ccccc1)N1CCc2cc(OC)c(OC)cc2[C@@H]1CCc1ccc(C(F)(F)F)cc1 [(2R)-2-{(1S)-6,7-dimethoxy-1-[2-(4-trifluoromethyl-phenyl)-ethyl]-3,4-dihydro-1H-isoquinolin-2-yl}-N-methyl-2-phenyl-acetamide] | active |  | decrease alertness | dose-dependently increase | enhance memory function | decreased | induce antidepressant-like activity | attenuate the natural activation induced by orexin A
